“And” between values parts separate entries of the source, which are not always exact repeats. Equal entries are not always repeated. “Also recorded” adds a separate entry of the source.
Legend:
Hb = biological target: T1, Hb (Homo sapiens, UniProt P69905); experiment: Oxygen equilibrium (P50 shift) of lysates from SS cells, Hemox Analyzer; assay type: cell-based; conditions: 20% hematocrit
T1 construct: whole blood suspensions from subjects with homozygous SCD (Hct of 20%); from tissue; host or cells: whole blood / red blood cells of patients with homozygous SS sickle cell disease; lysate for HPLC and OEC
Method: For our previously studied compounds (e.g., INN-312, TD-7, SAJ-310, INN-298) that incorporate methoxyPy substitution to vanillin analogs, we observed a significant increase in functional and biological activity as a result of increased protein interactions[31],[33],[35],[36]. We therefore expected similar effects for VZHE-039, which we tested by following VZHE-039 activity (measured by Hb adduct formation, P50-shift and RBC sickling inhibition) using SS blood. Briefly, we incubated 0.5, 1, and 2 mM concentrations of VZHE-039 with whole blood suspensions from subjects with homozygous SCD (Hct of 20%) under hypoxic conditions (2.5% O2/97.5% N2) at 37 °C for 2 h for expected peak adduct. Aliquot blood samples were drawn into a fixative (2% glutaraldehyde solution), and sickling was assessed by microscopy[31],[33],[35],[36]. Aliquot samples were also subjected to cation-exchange HPLC analyses to assess the degree of Hb modification to the high-affinity adduct form (Hb adduct formation), as well as standard O2 equilibrium curves (OEC) to assess P50-shifts using hemox analyzer[31],[33],[35],[36]. […] The improved potency of Voxelotor has been attributed to reduced binding stoichiometry, i.e. while Voxelotor binds Hb at a 1:1 ratio, VZHE-039 binds Hb at a 2:1 ratio. […] This observation, as will be discussed later is likely due to a meaningful contribution from the novel O2-independent antisickling activity as result of the strong contact with the αF-helix.
The effect of VZHE-039 on RBC sickling, Hb modification, and Hb oxygen equilibrium was studied utilizing samples from consented individuals with homozygous SCD following previous procedure. Briefly, blood suspended in Hemox buffer and supplemented with glucose and bovine serum albumin, to a final hematocrit of 20% were incubated under air in the absence or presence of 0.5 mM, 1 mM and 2 mM VZHE-039 at 37 °C for 1 h. This was followed by incubating the suspensions under hypoxic conditions (2.5% O2/97.5% N2) at 37 °C for 2 h. Aliquot samples were obtained and fixed with 2% glutaraldehyde solution without exposure to air, and then subjected to microscopic morphological analysis of bright field images (at × 40 magnification) of single layer cells on an Olympus BX40 microscope fitted with an Infinity 2 camera (Olympus), and the coupled Image Capture software. Leftover samples were washed in phosphate-buffer saline, and hemolyzed in hypotonic lysis buffer for subsequent Hb-modification and oxygen equilibrium analyses.
For the oxygen equilibrium studies, 100 μL aliquot samples from the above clarified lysate were added to 4 mL of 0.1 M potassium phosphate buffer, pH 7.0, in cuvettes and subjected to hemoximetry analysis using a Hemox Analyzer (TCS Scientific Corp.) to determine the P50 values.

[1] = Partitioning into RBCs in whole blood; assay type: in vitro ADME; conditions: 100–300 µM; normal whole human blood, 37 °C
Method: Toxicity concerns remain an important issue in the use of aromatic aldehydes in treating a chronic disease, such as SCD, especially as it involves modification of a large amount of in vivo present Hb. […] We evaluated key metrics such as in vitro RBC partitioning and ADME/safety profiles, in order to glean important safety insights. […] We also assessed VZHE-039 at 10 μM for its bi-directional cell permeability using Caco-2 cell monolayers[53],[54].
We incubated test compounds at expected blood concentrations (100–300 uM) with whole blood (mouse or human), after which we analyzed compound concentrations separately in plasma, whole blood and RBCs. Previously, we have established and validated reversed-phase HPLC and LC/MS methods for accurately measuring the compounds in blood. Validated reversed-phase HPLC was conducted on a Hitachi system, using a Waters C18 column, and a gradient of 0.1% Formic Acid in water (mobile phase A), and 0.1% Formic Acid in Acetonitrile (mobile phase B) at a flow rate of 1 mL/min in 12 min. UHPLC and LC/MS analyses were conducted at the Bioanalytical Core Facility at The Children’s Hospital of Philadelphia. […] 5 uL of each sample was injected at analyzed using a gradient of: (A) 5 mM ammonium acetate in deionized water (pH adjusted to 4.8 by formic acid); and (B) 5 mM ammonium acetate in (90:10) acetonitrile: water, at a flow rate of 0.5 mL/minute. […]

SS RBCs = experiment: pO2-dependent degree of sickling in Hemox Analyzer; assay type: cell-based, human; conditions: Hct 20%
Method: In a confirmatory study, a pO2 dependent degree of sickling of VZHE-039 at 1 and 2 mM doses, with Voxelotor as a control was performed using a Hemox analyzer. […] Oksenberg et al.reported similar observations with Voxelotor[28], where the compound lost its potent antisickling activity at low pO2 values.
The second study established pO2 dependent degree of sickling of VZHE-039, with Voxelotor as a control. Concurrently, blood samples, hematocrit 20%, were incubated without any drug (control) or with 1, or 2 mM VZHE-039 at 37 °C for 1 h. A second control sample was incubated with 2 mM Voxelotor. At conclusion, 100 uL aliquots of each suspension were mixed with 2.5 mL Hemox buffer (pH 7.4, supplemented with antifoam), and transferred into the sample chamber of the Hemox Analyzer. Compressed air was then flushed through the sample to ensure complete oxygenation (at 150 mmHg). Nitrogen gas was then introduced into the sample chamber, and 50 uL aliquots were obtained and fixed at defined pO2 values. At conclusion, all fixed samples were subjected to microscopic analysis for their degree of sickling, and results were plotted using Prism Graph Pad software. The experiments were conducted in three replicates on different days, and mean and standard deviation values are reported.

T1 sequence (P69905 2-142): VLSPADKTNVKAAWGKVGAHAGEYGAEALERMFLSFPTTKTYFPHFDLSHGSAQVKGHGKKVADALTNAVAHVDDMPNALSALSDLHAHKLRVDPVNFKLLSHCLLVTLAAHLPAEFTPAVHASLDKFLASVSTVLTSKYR
T1 sequence (P68871 with tags, fused parts or gaps E7V partner): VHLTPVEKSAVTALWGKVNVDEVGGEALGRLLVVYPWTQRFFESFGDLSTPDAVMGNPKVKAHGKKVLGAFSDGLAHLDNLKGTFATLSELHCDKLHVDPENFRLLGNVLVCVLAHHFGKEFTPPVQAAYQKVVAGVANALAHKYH

P50 Shift (ΔP50) (Hb; 0.5 mM): 22% and 22.3 ± 8.7%
P50 Shift (ΔP50) (Hb; 1 mM): 47% and 46.6 ± 5.4%
P50 Shift (ΔP50) (Hb; 2 mM): 76% and 75.6 ± 2.5%
Partitioned into the RBC compartment [1]: approximately 85%
SMILES: O=Cc1c(O)cccc1OCc1cccc(CO)n1 [VZHE-039, 2-((6-(Hydroxymethyl)pyridin-2-yl)methoxy)-6-hydroxybenzaldehyde]
pO2-dependent sickling inhibition (in words) (SS RBCs; 1 mM): delay in initiation of sickling, as well as reduction in the total number of sickled cells; also recorded: significant delay in initiation of sickling
pO2-dependent sickling inhibition (in words) (SS RBCs; 2 mM): complete inhibition of sickling at the lowest recorded pO2; also recorded: complete sickling inhibition at all pO2
